Results reported in patent US9279003B2, “Analogs of sodium channel peptide toxin” (priority 2010, dated 2016).
Where a SMILES comes first, the peptide text is derived from it. Bridges are numbered along the chain shown (N, C = ends). [ ]: non-standard residue; d: D form. NMeL = CN[C@@H](CC(C)C)C(=O)O; αMeL = CC(C)C[C@](C)(N)C(=O)O

Legend:
human Nav1.7 = human Nav1.7 (Homo sapiens, UniProt Q15858); test: cell-based; assay type: cell-based
Nav1.2 (rBIIa) = assay type: cell-based, rat

Chain of human Nav1.7 (Q15858 other isoform, or with tags, fused parts or gaps): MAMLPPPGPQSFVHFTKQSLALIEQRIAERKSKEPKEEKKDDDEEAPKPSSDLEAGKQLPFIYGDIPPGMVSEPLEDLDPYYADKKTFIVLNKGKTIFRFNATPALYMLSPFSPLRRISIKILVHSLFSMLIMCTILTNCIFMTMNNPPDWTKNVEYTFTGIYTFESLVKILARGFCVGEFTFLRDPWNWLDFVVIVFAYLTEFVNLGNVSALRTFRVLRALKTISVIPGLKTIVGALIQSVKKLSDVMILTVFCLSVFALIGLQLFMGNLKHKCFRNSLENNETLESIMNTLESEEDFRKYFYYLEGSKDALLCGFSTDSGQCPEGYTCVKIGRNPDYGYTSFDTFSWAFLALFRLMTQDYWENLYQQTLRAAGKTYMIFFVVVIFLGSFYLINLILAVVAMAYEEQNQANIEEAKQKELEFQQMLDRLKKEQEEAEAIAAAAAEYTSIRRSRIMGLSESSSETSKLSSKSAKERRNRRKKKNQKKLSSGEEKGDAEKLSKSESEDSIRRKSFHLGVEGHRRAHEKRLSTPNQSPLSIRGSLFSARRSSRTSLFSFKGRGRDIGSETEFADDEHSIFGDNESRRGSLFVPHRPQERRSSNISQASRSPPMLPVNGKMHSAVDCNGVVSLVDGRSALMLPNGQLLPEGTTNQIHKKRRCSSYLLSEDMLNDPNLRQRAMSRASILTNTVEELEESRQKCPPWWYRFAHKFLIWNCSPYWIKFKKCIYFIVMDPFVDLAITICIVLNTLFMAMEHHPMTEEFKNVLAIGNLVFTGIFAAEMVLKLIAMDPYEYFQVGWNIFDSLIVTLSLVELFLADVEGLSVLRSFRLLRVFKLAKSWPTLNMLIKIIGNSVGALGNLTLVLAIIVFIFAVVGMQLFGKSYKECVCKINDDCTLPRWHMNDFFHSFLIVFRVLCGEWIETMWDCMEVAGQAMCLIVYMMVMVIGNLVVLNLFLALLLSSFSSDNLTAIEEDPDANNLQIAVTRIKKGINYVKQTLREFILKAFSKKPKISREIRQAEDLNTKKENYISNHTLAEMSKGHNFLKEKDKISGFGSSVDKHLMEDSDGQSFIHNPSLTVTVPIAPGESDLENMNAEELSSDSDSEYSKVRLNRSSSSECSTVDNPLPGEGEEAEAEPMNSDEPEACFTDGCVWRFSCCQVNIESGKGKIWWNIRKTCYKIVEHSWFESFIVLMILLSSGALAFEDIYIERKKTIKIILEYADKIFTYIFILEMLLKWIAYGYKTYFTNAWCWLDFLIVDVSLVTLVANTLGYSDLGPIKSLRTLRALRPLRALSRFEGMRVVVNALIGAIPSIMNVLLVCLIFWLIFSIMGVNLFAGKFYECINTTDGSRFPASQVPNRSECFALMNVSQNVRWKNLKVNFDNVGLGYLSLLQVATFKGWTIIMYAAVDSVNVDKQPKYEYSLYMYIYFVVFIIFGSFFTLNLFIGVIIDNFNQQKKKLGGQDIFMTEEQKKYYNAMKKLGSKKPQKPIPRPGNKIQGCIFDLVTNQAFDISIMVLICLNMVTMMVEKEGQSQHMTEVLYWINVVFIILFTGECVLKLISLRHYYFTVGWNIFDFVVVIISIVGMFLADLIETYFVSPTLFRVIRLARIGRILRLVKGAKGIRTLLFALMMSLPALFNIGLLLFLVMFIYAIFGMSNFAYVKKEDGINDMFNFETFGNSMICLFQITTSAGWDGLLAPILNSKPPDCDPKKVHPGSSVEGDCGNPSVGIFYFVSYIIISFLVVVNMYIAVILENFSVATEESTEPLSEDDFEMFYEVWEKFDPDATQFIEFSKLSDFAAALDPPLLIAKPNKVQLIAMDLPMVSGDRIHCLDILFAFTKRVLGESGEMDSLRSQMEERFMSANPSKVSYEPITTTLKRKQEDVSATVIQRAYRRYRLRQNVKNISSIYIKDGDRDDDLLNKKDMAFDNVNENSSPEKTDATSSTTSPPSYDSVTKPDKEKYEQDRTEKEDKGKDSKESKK

## CC[C@H](C)[C@H](NC(=O)[C@H](CCCNC(=N)N)NC(=O)[C@H](CCCCN)NC(=O)[C@@H]1CSSC[C@@H]2NC(=O)[C@H](CCCCN)NC(=O)[C@H](CCCNC(=N)N)NC(=O)[C@H](CCC(=O)O)NC(=O)[C@H](CCC(=O)O)NC(=O)[C@H](CC(=O)O)NC(=O)[C@@H]3CSSC[C@H](NC(=O)[C@H](C(C)C)NC(=O)[C@H](CC(C)C)NC(=O)CNC(=O)[C@H](CCC(=O)O)NC(=O)[C@H](CSSC[C@H](NC(=O)[C@@H](N)Cc4ccc(O)cc4)C(=O)N[C@@H](CCC(N)=O)C(=O)N[C@@H](CCCCN)C(=O)N[C@@H](Cc4c[nH]c5ccccc45)C(=O)N[C@@H](CCSC)C(=O)N[C@@H](Cc4c[nH]c5ccccc45)C(=O)N[C@@H]([C@@H](C)O)C(=O)N3)NC2=O)C(=O)N[C@@H](CCCNC(=N)N)C(=O)N[C@@H](CC(C)C)C(=O)N[C@@H](Cc2c[nH]c3ccccc23)C(=O)N1)C(=O)N[C@H](C(=O)N[C@@H](CC(N)=O)C(=O)N[C@@H](CCSC)C(=O)O)[C@@H](C)CC [GsMTx II/PaTX II, reference compound] (H-YCQKWMWTCDEERKCCEGLVCRLWCKRIINM-OH; disulfide 2-16, 9-21, 15-25)
Human Nav1.7
  IC50: 260 nM

## CSCC[C@@H]1NC(=O)CNC(=O)[C@H](CCC(=O)O)NC(=O)[C@@H]2CSSC[C@H](NC(=O)[C@@H](N)Cc3ccc(O)cc3)C(=O)N[C@@H](CCC(N)=O)C(=O)N[C@@H](CCCCN)C(=O)N[C@@H](Cc3c[nH]c4ccccc34)C(=O)N[C@@H](CCSC)C(=O)N[C@@H](Cc3c[nH]c4ccccc34)C(=O)N[C@@H]([C@@H](C)O)C(=O)N[C@H]3CSSC[C@H](NC(=O)[C@H](C(C)C)NC1=O)C(=O)N[C@@H](CCCNC(=N)N)C(=O)N[C@@H](CC(C)C)C(=O)N[C@@H](Cc1c[nH]c4ccccc14)C(=O)N[C@H](C(=O)N[C@@H](CCCCN)C(=O)N[C@@H](CCCCN)C(=O)N[C@@H](CCCCN)C(=O)N[C@@H](CC(C)C)C(=O)N[C@@H](Cc1c[nH]c4ccccc14)C(=O)O)CSSC[C@H](NC(=O)[C@H](CCCCN)NC(=O)[C@H](CCCNC(=N)N)NC(=O)[C@H](C)NC(=O)[C@H](CO)NC(=O)[C@H](CC(=O)O)NC3=O)C(=O)N2 [compound 3]
Nav1.2 (rBIIa)
  IC50: 8 ± 2 nM
Human Nav1.7
  IC50: 0.2 ± 0.03 nM

## CSCC[C@@H]1NC(=O)[C@H](Cc2c[nH]c3ccccc23)NC(=O)[C@H](CCCCN)NC(=O)[C@H](CCC(N)=O)NC(=O)[C@@H](NC(=O)[C@@H](N)Cc2ccc(O)cc2)CSSC[C@@H]2NC(=O)[C@@H]3CSSC[C@@H](C(=O)N[C@@H](CCCCN)C(=O)N[C@@H](CCCCN)C(=O)N[C@@H](CCCCN)C(=O)N[C@@H](CC(C)C)C(=O)N[C@@H](Cc4c[nH]c5ccccc45)C(=O)O)NC(=O)[C@H](Cc4c[nH]c5ccccc45)NC(=O)[C@H](CC(C)C)NC(=O)[C@H](CCCNC(=N)N)NC(=O)[C@H](CSSC[C@H](NC(=O)[C@H]([C@@H](C)O)NC(=O)[C@H](Cc4c[nH]c5ccccc45)NC1=O)C(=O)N[C@@H](CC(=O)O)C(=O)N[C@@H](CO)C(=O)N[C@@H](CCC(=O)O)C(=O)N[C@@H](CCCNC(=N)N)C(=O)N[C@@H](CCCCN)C(=O)N3)NC(=O)[C@H](C(C)C)NC(=O)[C@H](CC(C)C)NC(=O)CNC(=O)[C@H](CCC(=O)O)NC2=O [compound 4]
Nav1.2 (rBIIa)
  IC50: 44.7 ± 15 nM
Human Nav1.7
  IC50: 1.7 ± 0.1 nM

## CC[C@H](C)[C@H](NC(=O)[C@@H](NC(=O)[C@H](CCCCN)NC(=O)[C@H](CCCCN)NC(=O)[C@@H]1CSSC[C@@H]2NC(=O)[C@H](CCCCN)NC(=O)[C@H](CCCNC(=N)N)NC(=O)[C@H](CCC(=O)O)NC(=O)[C@H](CO)NC(=O)[C@H](CC(=O)O)NC(=O)[C@@H]3CSSC[C@H](NC(=O)[C@H](C(C)C)NC(=O)[C@H](CCSC)NC(=O)CNC(=O)[C@H](CCC(=O)O)NC(=O)[C@H](CSSC[C@H](NC(=O)[C@@H](N)Cc4ccc(O)cc4)C(=O)N[C@@H](CCC(N)=O)C(=O)N[C@@H](CCCCN)C(=O)N[C@@H](Cc4c[nH]c5ccccc45)C(=O)N[C@@H](CCSC)C(=O)N[C@@H](Cc4c[nH]c5ccccc45)C(=O)N[C@@H]([C@@H](C)O)C(=O)N3)NC2=O)C(=O)N[C@@H](CCCNC(=N)N)C(=O)N[C@@H](CC(C)C)C(=O)N[C@@H](Cc2c[nH]c3ccccc23)C(=O)N1)[C@@H](C)CC)C(=O)O [compound 5]
Nav1.2 (rBIIa)
  IC50: 919 ± 130 nM
Human Nav1.7
  IC50: 552 ± 90 nM

## CSCC[C@@H]1NC(=O)[C@H](Cc2c[nH]c3ccccc23)NC(=O)[C@H](CCCCN)NC(=O)[C@H](CCC(N)=O)NC(=O)[C@@H](NC(=O)[C@@H](N)Cc2ccc(O)cc2)CSSC[C@@H]2NC(=O)[C@@H]3CSSC[C@@H](C(=O)N[C@@H](CCCCN)C(=O)N[C@@H](CCCCN)C(=O)N[C@@H](CCCCN)C(=O)N[C@@H](CC(C)C)C(=O)N[C@@H](Cc4c[nH]c5ccccc45)C(=O)O)NC(=O)[C@H](Cc4c[nH]c5ccccc45)NC(=O)[C@H](CC(C)C)NC(=O)[C@H](CCCNC(=N)N)NC(=O)[C@H](CSSC[C@H](NC(=O)[C@H]([C@@H](C)O)NC(=O)[C@H](Cc4c[nH]c5ccccc45)NC1=O)C(=O)N[C@@H](CC(=O)O)C(=O)N[C@@H](CO)C(=O)N[C@@H](C)C(=O)N[C@@H](CCCNC(=N)N)C(=O)N[C@@H](CCCCN)C(=O)N3)NC(=O)[C@H](C(C)C)NC(=O)[C@H](CC(C)C)NC(=O)CNC(=O)[C@H](CCC(=O)O)NC2=O [compound 6] (H-YCQKWMWTCDSARKCCEGLVCRLWCKKKLW-OH; disulfide 2-16, 9-21, 15-25)
Nav1.2 (rBIIa)
  IC50: 24 ± 10 nM
Human Nav1.7
  IC50: 1 nM

## CSCC[C@@H]1NC(=O)[C@H](Cc2c[nH]c3ccccc23)NC(=O)[C@H](CCCCN)NC(=O)[C@H](CCC(N)=O)NC(=O)[C@@H](NC(=O)[C@@H](N)Cc2ccc(O)cc2)CSSC[C@@H]2NC(=O)[C@@H]3CSSC[C@@H](C(=O)N[C@@H](CCCCN)C(=O)N[C@@H](CCCCN)C(=O)N[C@@H](CCCCN)C(=O)N[C@@](C)(CC(C)C)C(=O)N[C@@H](Cc4c[nH]c5ccccc45)C(=O)O)NC(=O)[C@H](Cc4c[nH]c5ccccc45)NC(=O)[C@H](CC(C)C)NC(=O)[C@H](CCCNC(=N)N)NC(=O)[C@H](CSSC[C@H](NC(=O)[C@H]([C@@H](C)O)NC(=O)[C@H](Cc4c[nH]c5ccccc45)NC1=O)C(=O)N[C@@H](CC(=O)O)C(=O)N[C@@H](CO)C(=O)N[C@@H](C)C(=O)N[C@@H](CCCNC(=N)N)C(=O)N[C@@H](CCCCN)C(=O)N3)NC(=O)[C@H](C(C)C)NC(=O)[C@H](CC(C)C)NC(=O)CNC(=O)[C@H](CCC(=O)O)NC2=O [compound 7] (H-YCQKWMWTCDSARKCCEGLVCRLWCKKK[αMeL]W-OH; disulfide 2-16, 9-21, 15-25)
Nav1.2 (rBIIa)
  IC50: 28 ± 6 nM
Human Nav1.7
  IC50: 8 ± 1 nM

## CSCC[C@@H]1NC(=O)[C@H](Cc2c[nH]c3ccccc23)NC(=O)[C@H](CCCCN)NC(=O)[C@H](CCC(N)=O)NC(=O)[C@@H](NC(=O)[C@@H](N)Cc2ccc(O)cc2)CSSC[C@@H]2NC(=O)[C@@H]3CSSC[C@@H](C(=O)N[C@@H](CCCCN)C(=O)N[C@@H](CCCCN)C(=O)N[C@@H](CCCCN)C(=O)N(C)[C@@H](CC(C)C)C(=O)N[C@@H](Cc4c[nH]c5ccccc45)C(=O)O)NC(=O)[C@H](Cc4c[nH]c5ccccc45)NC(=O)[C@H](CC(C)C)NC(=O)[C@H](CCCNC(=N)N)NC(=O)[C@H](CSSC[C@H](NC(=O)[C@H]([C@@H](C)O)NC(=O)[C@H](Cc4c[nH]c5ccccc45)NC1=O)C(=O)N[C@@H](CC(=O)O)C(=O)N[C@@H](CO)C(=O)N[C@@H](C)C(=O)N[C@@H](CCCNC(=N)N)C(=O)N[C@@H](CCCCN)C(=O)N3)NC(=O)[C@H](C(C)C)NC(=O)[C@H](CC(C)C)NC(=O)CNC(=O)[C@H](CCC(=O)O)NC2=O [compound 8] (H-YCQKWMWTCDSARKCCEGLVCRLWCKKK[NMeL]W-OH; disulfide 2-16, 9-21, 15-25)
Nav1.2 (rBIIa)
  IC50: 51 ± 10 nM
Human Nav1.7
  IC50: 18 nM
